According to patent publication US11938123B2, “Use of 2,3,5-substituted thiophene compound to prevent, ameliorate, or treat breast cancers” (Pharos iBio Co., Ltd., priority 2018, dated 2024):

Columns and labels:
BT549 [1] = test: Cell viability, PHI-101 alone or with cisplatin (Example 2); assay type: cell-based; conditions: Homo sapiens, BT-549; BT549 (triple-negative); medium instead of cisplatin; 72 hours
Protocol: (§1) Each of the breast cancer cell lines shown in Table 3 below was cultured using RPMI-1640 in a 100-mm culture dish, and then diluted to a density of 3,000 cells/90 μl using PBS.
(§2) Thereafter, 90 μl of each of the diluted breast cancer cell lines was treated with 10 μl of a 1:2 serial dilution of a hydrochloride salt of PHI-101 to a final concentration of up to 100 μM and cultured under 5% CO2 at 37° C. for 1 hour, and then treated with cisplatin at an IC50 concentration for each cell line. Groups treated with PHI-101 alone were additionally treated with 10 μl of medium instead of cisplatin. Next, each of the cell lines was cultured under 5% CO2 at 37° C. for 72 hours. Next, the cells were counted using a Celltiter-Glo assay kit (Promega), and cell viability was measured by expressing the cell count as a percentage relative to that of a control group not treated with PHI-101 and cisplatin.
(§3) IC50 for each breast cancer cell line was calculated by sigmoidal curve fitting using the PRIZM software, and the results of the calculation are shown in Table 4 below.

BT474 [2] = test: as above; assay type: cell-based; conditions: Homo sapiens, BT-474, medium instead of cisplatin, 72 hours
Protocol: as §1, §2, §3

ZR-75-1 [3] = test: as above; assay type: cell-based; conditions: Homo sapiens, medium instead of cisplatin, 72 hours
Protocol: as §1, §2, §3

MCF7 [4] = test: as above; assay type: cell-based; conditions: Homo sapiens, medium instead of cisplatin, 72 hours
Protocol: as §1, §2, §3

T47D [5] = test: as above; assay type: cell-based; conditions: Homo sapiens, medium instead of cisplatin, 72 hours
Protocol: as §1, §2, §3

MDA-MB-468 [6] = test: Tumor inhibitory activity in mice with MDA-MB-468 tumors (Example 5); assay type: in vivo, NOD SCID female mice; conditions: MDA-MB-468 tumors in mice; olaparib 50 mg/kg/day, PHI-101 60 mg/kg/day; treated 28 days
Protocol: (§4) The breast cancer cell line MDA-MB-468 was monolayer-cultured in an L-15 medium supplemented with 10% heat-inactivated fetal bovine serum under 5% CO2 at 37° C. The tumor cells were subcultured so as not to exceed passages 4 to 5 before confluence by trypsin-EDTA treatment. The tumor cells growing in an exponential growth phase were harvested and counted for tumor inoculation.
(§5) As mice, 6-8-week-old NOD SCID female mice (18 to 22 g) (GemPharmatech Co., Ltd) were prepared. The mice were quarantined for 7 days before use in the experiment, and mice with abnormal health were excluded from the experiment. The mice were housed in cages (300×180×150 mm) at 22±3° C. and a relative humidity of 40% to 70% under a 12-hour light/12-hour dark cycle. During the entire experimental period except for the period specified by the protocol, the mice were allowed to freely access sterilized dry granular food (Beijing Keaoxieli Feed Co., Ltd., Beijing, China) and water.
(§6) For tumor induction, MDA-MB-468 breast cancer cells (1×10^7) in 0.1 ml of a mixture (1:1) of L-15 and Matrigel (BD, cat. No. 356234) were injected subcutaneously into the right flank of each mouse. […] Then, five mice were allocated for each group so that the average tumor volume was the same between the groups at the time point of treatment.
Measurement of the tumor volume was performed with calipers twice a week. The tumor volume (TV) (mm^3) was calculated using the following equation. TV=a×b^2/2
The tumor growth inhibition (TGI) rate was calculated according to the following equation using the tumor volume. TGI (%)=(1−T/C)×100
T=final tumor volume of experimental group/initial tumor volume of experimental group
C=final tumor volume of control group/initial tumor volume of control group
In order to evaluate whether PHI-101 and/or olaparib affects tumor inhibition in the mice, the volume and growth inhibition rate of the tumor generated by the breast cancer cell line MDA-MB-468 transplanted into the mice were analyzed according to Example 5-1-6.

JIMT-1 = test: Tumor inhibitory activity in mice with Herceptin-resistant JIMT-1 tumors (Example 6); assay type: in vivo, NOD SCID female mice; conditions: JIMT-1 tumors in mice; PHI-101 60 mg/kg/day vs Herceptin 5 mg/kg/day; 3 weeks; FIG. 16
Protocol: as §4, with “The Herceptin-resistant breast cancer” for “The breast cancer”, “cell line JIMT-1 was monolayer-cultured” for “cell line MDA-MB-468 was monolayer-cultured”
As mice, 7-8-week-old NOD SCID female mice (20 to 22 g) (GemPharmatech Co., Ltd.) were prepared. The mice were quarantined for 7 days before use in the experiment, and mice with abnormal health were excluded from the experiment. The mice were housed in cages (300×180×150 mm) at 22±3° C. and a relative humidity of 40% to 70% under a 12-hour light/12-hour dark cycle. […]
Measurement of the tumor volume was performed with calipers twice a week. The tumor volume (TV) (mm^3) was calculated using the following equation. […]
The tumor growth inhibition (TGI) rate was calculated according to the following equation using the tumor volume. […]
In order to evaluate whether PHI-101 has an effect on tumor inhibition in the mice, the volume and growth inhibition rate of the tumor generated by the breast cancer cell line JIMT-1 transplanted into the mice were analyzed by performing Example 6-1-5.

[7] = Mouse body weight change in MDA-MB-468 tumor model (Example 5); assay type: in vivo, NOD SCID female mice; conditions: MDA-MB-468 tumor mice; olaparib 50 mg/kg/day, PHI-101 60 mg/kg/day; 28 days; FIG. 14
Protocol: as §5, §6
The body weight of each mouse was measured twice a week, and the change (%) in body weight (BW) was calculated using the following equation. BW change (%)=(BWPG-Dx/BWPG-D1)×100
In order to evaluate whether PHI-101 and/or olaparib affected the body weight of each mouse, the change in the body weight of each mouse was analyzed according to Example 5-1-5.

BT549 [8] = test: Breast cancer cell line viability, PHI-101 alone (Example 1); assay type: cell-based; conditions: Homo sapiens, BT-549; BT549, triple-negative breast cancer; 72 hours; Celltiter-Glo
Protocol: (§7) Each of the breast cancer cell lines shown in Table 1 below was cultured with DMEM (Dulbecco's Modified Eagle Medium) or RPMI1640 in a 100-mm culture dish (SPL) under 5% CO2 at 37° C., and then diluted to a density of 3,000 cells/90 μl using PBS (phosphate-buffered saline) (Biosesang).
(§8) Next, 90 μl of each of the diluted breast cancer cell lines was treated with 10 μl of a 1:2 serial dilution of a hydrochloride salt of the compound represented by Formula 1 (hereinafter referred to as “PHI-101”) to a final concentration of up to 100 μM, and then cultured under 5% CO2 at 37° C. for 72 hours. After culture, the cells were counted using a Celltiter-Glo assay kit (Promega), and cell viability was measured by expressing the cell count as a percentage relative to that of a control group not treated with PHI-101.
(§9) The IC50 of PHI-101 for each breast cancer cell line was calculated by sigmoidal curve fitting using the PRIZM software, and the results of the calculation are shown in Table 2 below. It was confirmed that PHI-101 had excellent ability to inhibit the breast cancer cell lines, and that PHI-101 also had excellent ability to inhibit the triple-negative breast cancer cell lines (FIGS. 1 to 3).

SK-BR-3 [9] = test: as above; assay type: cell-based; conditions: Homo sapiens; SK-BR-3, non-triple-negative breast cancer; 72 hours; Celltiter-Glo
Protocol: as §7, §8, §9

MDA-MB-468 [10] = test: as above; assay type: cell-based; conditions: Homo sapiens; MDA-MB-468, triple-negative breast cancer; 72 hours; Celltiter-Glo
Protocol: as §7, §8, §9

BT474 [11] = test: as above; assay type: cell-based; conditions: Homo sapiens, BT-474; BT474, non-triple-negative breast cancer; 72 hours; Celltiter-Glo
Protocol: as §7, §8, §9

ZR-75-1 [12] = test: as above; assay type: cell-based; conditions: Homo sapiens; ZR-75-1, non-triple-negative breast cancer; 72 hours; Celltiter-Glo
Protocol: as §7, §8, §9

MCF7 [13] = test: as above; assay type: cell-based; conditions: Homo sapiens; MCF7, non-triple-negative breast cancer; 72 hours; Celltiter-Glo
Protocol: as §7, §8, §9

MDA-MB-231 = test: as above; assay type: cell-based; conditions: Homo sapiens; MDA-MB-231, triple-negative breast cancer; 72 hours; Celltiter-Glo
Protocol: as §7, §8, §9

T47D [14] = test: as above; assay type: cell-based; conditions: Homo sapiens, non-triple-negative breast cancer, 72 hours, Celltiter-Glo
Protocol: as §7, §8, §9

HCC1937 = test: as above; assay type: cell-based; conditions: Homo sapiens; HCC1937, triple-negative breast cancer; 72 hours; Celltiter-Glo
Protocol: as §7, §8, §9

JIMT1 [15] = test: as above; assay type: cell-based; conditions: Homo sapiens, JIMT-1; JIMT1, non-triple-negative breast cancer; 72 hours; Celltiter-Glo
Protocol: as §7, §8, §9

HS578T [16] = test: as above; assay type: cell-based; conditions: Homo sapiens, Hs-578T, triple-negative breast cancer, 72 hours, Celltiter-Glo
Protocol: as §7, §8, §9

MDA-MB-435 = test: as above; assay type: cell-based; conditions: Homo sapiens; MDA-MB-435, triple-negative breast cancer; 72 hours; Celltiter-Glo
Protocol: as §7, §8, §9

SK-BR-3 [17] = test: Cell viability, olaparib alone or with PHI-101 (Example 3); assay type: cell-based; conditions: Homo sapiens, medium instead of PHI-101, 72 hours
Protocol: (§10) Each of the breast cancer cell lines shown in Table 5 below was cultured with DMEM (Dulbecco's Modified Eagle Medium) or RPMI1640 in a 100-mm culture dish (SPL), and then diluted to a density of 3,000 cells/90 μl using PBS (phosphate-buffered saline) (Biosesang).
(§11) Thereafter, 90 μl of each of the diluted breast cancer cell lines was treated with 10 μl of a 1:2 serial dilution of olaparib to a final concentration of up to 100 μM, and cultured under 5% CO2 at 37° C. for 1 hour. Then, each breast cancer cell line was treated with a hydrochloride salt of PHI-101 to a final concentration of 1 μM. Groups treated with olaparib alone were additionally treated with 10μ of medium instead of PHI-101. Thereafter, each cell line was cultured under 5% CO2 at 37° C. for 72 hours. Then, the cells were counted using a Celltiter-Glo assay kit (Promega), and cell viability was measured by expressing the cell count as a percentage relative to that of a control group not treated with PHI-101 and olaparib.
(§12) IC50 for each breast cancer cell line was calculated by sigmoidal curve fitting using the PRIZM software, and the results of the calculation are shown in Table 6 below.

MDA-MB-468 [18] = test: as above; assay type: cell-based; conditions: Homo sapiens; MDA-MB-468 (triple-negative); medium instead of PHI-101; 72 hours
Protocol: as §10, §11, §12

BT474 [19] = test: as above; assay type: cell-based; conditions: Homo sapiens, BT-474, medium instead of PHI-101, 72 hours
Protocol: as §10, §11, §12

ZR-75-1 [20] = test: as above; assay type: cell-based; conditions: Homo sapiens, medium instead of PHI-101, 72 hours
Protocol: as §10, §11, §12

MCF7 [21] = test: as above; assay type: cell-based; conditions: Homo sapiens, medium instead of PHI-101, 72 hours
Protocol: as §10, §11, §12

T47D [22] = test: as above; assay type: cell-based; conditions: Homo sapiens, medium instead of PHI-101, 72 hours
Protocol: as §10, §11, §12

JIMT1 [23] = test: as above; assay type: cell-based; conditions: Homo sapiens, JIMT-1, medium instead of PHI-101, 72 hours
Protocol: as §10, §11, §12

HS578T [24] = test: as above; assay type: cell-based; conditions: Homo sapiens, Hs-578T; HS578T (triple-negative); medium instead of PHI-101; 72 hours
Protocol: as §10, §11, §12

SMILES: NC(=O)Nc1cc(C#Cc2cccc(F)c2)sc1C(=O)N[C@H]1CCCNC1 [PHI-101, (S)-5-((3-fluorophenyl)ethynyl)-N-(piperidin-3-yl)-3-ureido thiophene-2-carboxamide]
- IC50 (BT549 [1]): 1.71 µM
- IC50 (BT474 [2]): 14.3 µM
- IC50 (ZR-75-1 [3]): 11.8 µM
- IC50 (MCF7 [4]): 3.23 µM
- IC50 (T47D [5]): 19.2 µM
- T/C (MDA-MB-468 [6]): 84%
- TGI (MDA-MB-468 [6]): 16%
- Tumor volume (52 days) (MDA-MB-468 [6]): 443 ± 18 mm^3
- Growth inhibition rate of the Herceptin-resistant tumor, compared with Herceptin group (JIMT-1): higher
- Change in the body weight of each mouse [7]: no significant change
- IC50 (BT549 [8]): 1.63 µM
- IC50 (SK-BR-3 [9]): 4.11 µM
- IC50 (MDA-MB-468 [10]): 3.74 µM
- IC50 (BT474 [11]): 14.7 µM
- IC50 (ZR-75-1 [12]): 11.4 µM
- IC50 (MCF7 [13]): 3.71 µM
- IC50 (MDA-MB-231): 4.97 µM
- IC50 (T47D [14]): 17.8 µM
- IC50 (HCC1937): 4.03 µM
- IC50 (JIMT1 [15]): 0.27 µM
- IC50 (HS578T [16]): 1.8 µM
- IC50 (MDA-MB-435): 1.51 µM

SMILES: O=C(c1cc(Cc2n[nH]c(=O)c3ccccc23)ccc1F)N1CCN(C(=O)C2CC2)CC1 [olaparib]
- T/C (MDA-MB-468 [6]): 76%
- TGI (MDA-MB-468 [6]): 24%
- Tumor volume (52 days) (MDA-MB-468 [6]): 402 ± 25 mm^3
- Change in the body weight of each mouse [7]: no significant change
- IC50 (SK-BR-3 [17]): 127 µM
- IC50 (MDA-MB-468 [18]): 47.1 µM
- IC50 (BT474 [19]): 74.6 µM
- IC50 (ZR-75-1 [20]): 352 µM
- IC50 (MCF7 [21]): 98 µM
- IC50 (T47D [22]): 77 µM
- IC50 (JIMT1 [23]): 520 µM
- IC50 (HS578T [24]): 186 µM
